Where “and” joins values, the source holds several entries; their conditions need not be identical. Equal entries are not always repeated. No end group written: not given here.
How the values were obtained:
[1] = system: normal human kidney-2 cells (HK-02, HK-2); experiment: Nephrotoxicity: cytotoxicity in HK-2 cells by CCK-8 assay; assay type: cell-based; conditions: 10-200 μg/mL, 24 h, in words
Experimental: Referring to the method from a literature (Sinomenine improve diabetic nephropathy by inhibiting fibrosis and regulating the JAK2/STAT3/SOCS1 pathway in streptozotocin-induced diabetic rats. Life Sci. 2021; 265:118855), normal human kidney-2 cells (HK-02, HK-2) (Shanghai Cell Bank) were seeded into 96-well plates and administered with small peptides P1 and P2 at concentrations of 0 μg/mL, 10 μg/mL, 20 μg/mL, 50 μg/mL, 100 μg/mL, and 200 μg/mL. After 24-hour stimulation, the cytotoxicity was assessed by Cell Counting Kit-8 (CCK-8) assay.

[2] = system: mouse model of acute gastric ulcer; experiment: Mouse model of acute gastric ulcer (anhydrous ethanol); assay type: in vivo
Experimental: In this embodiment, the function of the small peptides obtained in Embodiment 2 was validated using a mouse model of acute gastric ulcer.
Control group (model group): A mouse mode of acute gastric ulcer was constructed using anhydrous ethanol (0.1 mL/10 g) (referring to the literature of Study on Action of kangfuxin Solution on Experimental Gastric ulcer [J]. Chinese Traditional Patent Medicine, 2001, 23(2): 122-124. DOI: 10.3969/j.issn.1001-1528.). After modeling, the mice were administered with an equal volume of saline.
Blank group: The mice were administered with an equal volume of saline.
Drug treatment groups: A mouse mode of acute gastric ulcer was constructed by treating the mouse with anhydrous ethanol (0.1 mL/10 g). At 2 h, 12 h, and 22 h after modeling, the mice were administered with the rice polypeptide mixture (50 mg/kg) as the mixture group, small peptide P1 (0.5 mg/kg) as the P1 group, and small peptide P2 (0.5 mg/kg) as the P2 group, respectively.
Each group consisted of 8 mice. After 24 h of modeling, the mice were sacrificed, to extract the gastric tissue, and observe changes in bleeding points and ulcer area via gastric tissue dissection.

Rat liver = experiment: Animal safety observation: rat liver injury (serum alaninetransaminase activity); assay type: in vivo; conditions: 14 days; for Alaninetransaminase Activity, Average / Alaninetransaminase Activity: intragastric gavage, rat serum; for Alaninetransaminase Activity, Average: average of 6 rats, saline average P1 35.83333, P2 30.83333; for Alaninetransaminase Activity: individual rats (Rat 1-6)
Experimental: (§1) The rats were administered with the small peptides via intragastric gavage at doses of 500 mg/kg and 1000 mg/kg daily for 14 days. Changes in body weight were recorded. On day 14, the rats were sacrificed to measure alaninetransaminase (ALT) activity and blood urea nitrogen (BUN) levels in rat serum for assessing whether there was hepatotoxicity and nephrotoxicity in rats.

[3] = system: normal human hepatic parenchymal L-02 cells; experiment: Hepatotoxicity: cytotoxicity in L-02 cells by CCK-8 assay; assay type: cell-based; conditions: 10-200 μg/mL, 24 h, in words
Experimental: Referring to the method from a literature (Determination of emodin in L-02 cells and cell culture media with liquid chromatography-mass spectrometry: Application to a cellular toxicokinetic study. J Pharm Biomed Anal. 2012; 71:71-78), normal human hepatic parenchymal L-02 cells (obtained from Shanghai Cell Bank) were seeded into 96-well plates and treated with small peptides P1 and P2 at concentrations of 0 μg/mL, 10 μg/mL, 20 μg/mL, 50 μg/mL, 100 μg/mL, and 200 μg/mL. After 24-hour stimulation, the cytotoxicity was assessed by Cell Counting Kit-8 (CCK-8) assay.

mucosal repair = experiment: Screening of active monomers for mucosal repair effects; conditions: repeated experiments and screening; in words
From the text: The inventors observed the active monomers in the polypeptide mixture of Polimi-1 rice variety by mass spectrometry analysis of the polypeptides from various ordinary rice varieties and Polimi-1 rice variety. The small peptides identical to ordinary rice varieties and with high levels in ordinary rice varieties were excluded by a method of exclusion. Finally, the small peptides with higher levels in Polimi-1 rice variety and lower levels in other ordinary rice varieties were selected for further study, as well as those with higher levels in Polimi-1 rice variety and absent in other ordinary rice varieties. Since peptides with molecular weights below 1500 Daltons were extracted from the mixed polypeptide mixture previously obtained, other peptides above this threshold were excluded.

[4] = Animal safety observation: rat body weight; assay type: in vivo; conditions: for Rat body weight: 1000 mg/kg daily, intragastric gavage, individual rats, Rat 1-7 = c1-c7, 1000 mg/kg
Experimental: as §1

Rat kidney = experiment: Animal safety observation: rat kidney injury (serum blood urea nitrogen levels); assay type: in vivo; conditions: 14 days; for Blood Urea Nitrogen Levels: intragastric gavage, rat serum, individual rats (Rat 1-6)
Experimental: as §1

[5] = system: rat model of chronic gastric ulcer; experiment: Rat model of chronic gastric ulcer (anhydrous ethanol followed by aspirin); assay type: in vivo
Experimental: The function of the small peptides obtained in Embodiment 2 was validated in the present embodiment by using a rat model of chronic gastric ulcer.
Control group (model group): A rat model of chronic gastric ulcer model was constructed by intragastric administration of anhydrous ethanol (1 mL/200 g), followed by intragastric administration of 200 mg/kg aspirin 2 h later. The rats were administered with aspirin once daily for 4 days. At day 5, the rats were administered with an equal volume of saline.
Blank group: The rats were administered with an equal volume of saline.
Drug treatment groups: A rat model of chronic gastric ulcer was constructed as above-mentioned. At day 5, the rats were respectively administered with the rice polypeptide mixture (50 mg/kg), small peptide P1 (0.5 mg/kg), or small peptide P2 (0.5 mg/kg) twice daily for 3 days. On day 4, the rats were sacrificed and their gastric necropsy was performed.
Positive control group (omeprazole 2.6 mg/kg): A rat model of chronic gastric ulcer was constructed as above. At day 5, the rats were administered with omeprazole (2.6 mg/kg) twice daily for 3 days. On day 4, The rats were sacrificed and their gastric necropsy was performed.
Each group consisted of 10 rats. After 24 h of modeling, the rats were sacrificed to extract the gastric tissue, for measuring gastric pH, and observing changes in ulcer area via gastric tissue dissection. Liver and kidney tissues were collected for pathological section observation to assess drug safety.

[6] = 500 and 1000 mg/kg daily, rats, in words

GASRIIGVDL [Small peptide P1, GASRIIGVDL]
viability of normal human kidney cells HK-02 (HK-2) [1]: no effect
nephrotoxicity ([1]; HK-2 cells): no nephrotoxicity
Ulcer index ([2]; 0.5 mg/kg at 2 h, 12 h and 22 h after modeling, 8 mice, ratio of ulcer area to gastric mucosal tissue area, Control group 58.3 ± 10.1): 8.2 ± 3.1%
Ulcer inhibition rate ([2]; 0.5 mg/kg at 2 h, 12 h and 22 h after modeling, percentage reduction in ulcer area compared to the Control group): 85.9%
result compared to the mixture group ([2]; 0.5 mg/kg versus mixture 50 mg/kg, in words): better results than the mixture in larger dose
anti-ulcer effects ([2]; 0.5 mg/kg, in words): excellent anti-ulcer effects
Alaninetransaminase Activity, Average (Rat liver; 500 mg/kg daily): 27 IU/L
Alaninetransaminase Activity (Rat liver; 500 mg/kg daily): 35 IU/L and 44 IU/L and 20 IU/L and 15 IU/L and 21 IU/L and 27 IU/L
Alaninetransaminase Activity, Average (Rat liver; 1000 mg/kg daily): 39.83 IU/L
Alaninetransaminase Activity (Rat liver; 1000 mg/kg daily): 32 IU/L and 39 IU/L and 50 IU/L and 27 IU/L and 47 IU/L and 44 IU/L
hepatotoxicity (Rat liver; [6]): without hepatotoxicity
viability of normal human liver cells L-02 [3]: no effect
hepatotoxicity ([3]; L-02 cells): no hepatotoxicity
mucosal repair effects (mucosal repair): found to have mucosal repair effects
Rat body weight ([4]; Day 1): 210 g and 214 g and 218 g and 217 g and 216 g (2×) and 213 g
Rat body weight ([4]; Day 2): 212 g and 215 g (2×) and 219 g and 220 g and 222 g and 217 g
Rat body weight ([4]; Day 3): 212 g and 216 g and 220 g and 221 g and 224 g and 209 g and 218 g
Rat body weight ([4]; Day 4): 214 g and 218 g
Rat body weight ([4]; Day 5): 215 g and 220 g (2×) and 224 g and 228 g (2×) and 225 g
Rat body weight ([4]; Day 6): 215 g and 227 g and 224 g and 230 g and 229 g and 223 g and 228 g
Rat body weight ([4]; Day 7): 216 g and 228 g and 229 g (2×) and 236 g and 231 g and 224 g
Rat body weight ([4]; Day 8): 218 g and 229 g and 232 g and 235 g and 233 g and 228 g and 231 g
Rat body weight ([4]; Day 9): 220 g and 229 g and 234 g (2×) and 238 g and 233 g and 230 g
Rat body weight ([4]; Day 10): 225 g and 231 g and 237 g and 239 g and 238 g and 234 g and 236 g
Rat body weight ([4]; Day 11): 226 g and 232 g and 238 g and 241 g (2×) and 237 g and 239 g
Rat body weight ([4]; Day 12): 227 g and 233 g and 238 g and 243 g (2×) and 244 g and 239 g
Rat body weight ([4]; Day 13): 228 g and 235 g and 239 g and 244 g (2×) and 248 g and 240 g
Rat body weight ([4]; Day 14): 230 g and 237 g and 240 g and 247 g and 249 g and 243 g (2×)
Rat body weight ([4]; Day 15): 235 g and 238 g and 242 g and 248 g and 250 g and 245 g (2×)
effects on rat body weight ([4]; daily intragastric gavage for 14 days, in words): minimal effects
Blood Urea Nitrogen Levels (Rat kidney; 500 mg/kg daily): 25 mg/dL and 39 mg/dL and 29 mg/dL and 33 mg/dL and 36 mg/dL and 37 mg/dL
Blood Urea Nitrogen Levels (Rat kidney; 1000 mg/kg daily): 28 mg/dL and 30 mg/dL (2×) and 32 mg/dL and 36 mg/dL and 34 mg/dL
nephrotoxicity (Rat kidney; [6]): without hepatotoxicity and nephrotoxicity
Ulcer index ([5]; 0.5 mg/kg twice daily for 3 days, 10 rats, ratio of ulcer area to gastric mucosal tissue area, Control group 40.5 ± 5.3): 5.8 ± 2.5%
Ulcer inhibition rate ([5]; 0.5 mg/kg twice daily for 3 days, percentage reduction in ulcer area compared to the Control group): 85.7%
anti-ulcer effects ([5]; P1, P2 0.5 mg/kg, mixture 50 mg/kg, in words): exhibit anti-ulcer effects
P versus Positive control group ([5]; anti-ulcer effects compared to omeprazole 2.6 mg/kg, P1, P2 0.5 mg/kg, mixture 50 mg/kg): > 0.05

From patent US20260337225A1, “SMALL PEPTIDE AND USE THEREOF IN MUCOSAL REPAIR” (FORREST BIO-PHARM (SHENZHEN) CO., LTD., priority 2022, published 2026)
